Test results from ChEMBL document CHEMBL5696442, “Discovery of type II inhibitors of TGFβ-activated kinase 1 (TAK1) and mitogen-activated protein kinase kinase kinase kinase 2 (MAP4K2)” (J Med Chem, 2015).
The source made the active and inactive calls. The calls are words filed in the database; no cut-off is given here.

Columns and labels:
[1] = target: T1, Serine/threonine-protein kinase D2 (Homo sapiens) (UniProt Q9BZL6); experiment: Inhibition of PKD2 Lys1 labeling site in human A-375 cells at 5 uM by KiNativ Profiling analysis relative to control; type: cell-based
T1 sequence (whole entry): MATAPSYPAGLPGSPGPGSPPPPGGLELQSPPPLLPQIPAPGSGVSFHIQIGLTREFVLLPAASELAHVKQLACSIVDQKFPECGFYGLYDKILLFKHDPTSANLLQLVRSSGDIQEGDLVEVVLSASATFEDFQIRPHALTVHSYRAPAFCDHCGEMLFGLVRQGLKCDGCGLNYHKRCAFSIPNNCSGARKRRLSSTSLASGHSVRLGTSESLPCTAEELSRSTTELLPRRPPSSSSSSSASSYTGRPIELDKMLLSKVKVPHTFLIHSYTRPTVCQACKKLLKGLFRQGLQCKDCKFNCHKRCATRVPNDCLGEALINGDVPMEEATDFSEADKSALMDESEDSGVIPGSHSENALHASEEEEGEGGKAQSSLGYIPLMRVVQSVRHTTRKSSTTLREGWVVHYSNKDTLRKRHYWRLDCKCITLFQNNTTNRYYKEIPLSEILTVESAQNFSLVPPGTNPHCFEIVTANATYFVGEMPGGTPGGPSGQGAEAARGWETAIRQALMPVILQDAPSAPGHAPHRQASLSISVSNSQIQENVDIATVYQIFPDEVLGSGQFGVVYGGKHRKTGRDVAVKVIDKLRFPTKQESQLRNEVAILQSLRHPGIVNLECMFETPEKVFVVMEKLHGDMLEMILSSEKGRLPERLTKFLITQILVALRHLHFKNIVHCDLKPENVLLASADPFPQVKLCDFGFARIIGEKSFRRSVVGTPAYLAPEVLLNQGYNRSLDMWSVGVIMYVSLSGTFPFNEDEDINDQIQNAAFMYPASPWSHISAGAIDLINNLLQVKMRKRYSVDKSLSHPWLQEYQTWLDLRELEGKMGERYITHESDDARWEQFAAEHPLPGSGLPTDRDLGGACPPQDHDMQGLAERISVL

[2] = target: Maternal embryonic leucine zipper kinase (Homo sapiens) (UniProt Q14680); experiment: Inhibition of MELK Lys2 labeling site in human A-375 cells at 0.5 uM by KiNativ Profiling analysis relative to control; type: cell-based
[3] = target: Microtubule-associated serine/threonine-protein kinase 2 (Homo sapiens) (UniProt Q6P0Q8); experiment: Inhibition of MAST2 Lys2 labeling site in human A-375 cells at 0.05 uM by KiNativ Profiling analysis relative to control; type: cell-based
Microtubule-associated serine/threonine-protein kinase 2 (Homo sapiens), sequence (Q6P0Q8 whole entry): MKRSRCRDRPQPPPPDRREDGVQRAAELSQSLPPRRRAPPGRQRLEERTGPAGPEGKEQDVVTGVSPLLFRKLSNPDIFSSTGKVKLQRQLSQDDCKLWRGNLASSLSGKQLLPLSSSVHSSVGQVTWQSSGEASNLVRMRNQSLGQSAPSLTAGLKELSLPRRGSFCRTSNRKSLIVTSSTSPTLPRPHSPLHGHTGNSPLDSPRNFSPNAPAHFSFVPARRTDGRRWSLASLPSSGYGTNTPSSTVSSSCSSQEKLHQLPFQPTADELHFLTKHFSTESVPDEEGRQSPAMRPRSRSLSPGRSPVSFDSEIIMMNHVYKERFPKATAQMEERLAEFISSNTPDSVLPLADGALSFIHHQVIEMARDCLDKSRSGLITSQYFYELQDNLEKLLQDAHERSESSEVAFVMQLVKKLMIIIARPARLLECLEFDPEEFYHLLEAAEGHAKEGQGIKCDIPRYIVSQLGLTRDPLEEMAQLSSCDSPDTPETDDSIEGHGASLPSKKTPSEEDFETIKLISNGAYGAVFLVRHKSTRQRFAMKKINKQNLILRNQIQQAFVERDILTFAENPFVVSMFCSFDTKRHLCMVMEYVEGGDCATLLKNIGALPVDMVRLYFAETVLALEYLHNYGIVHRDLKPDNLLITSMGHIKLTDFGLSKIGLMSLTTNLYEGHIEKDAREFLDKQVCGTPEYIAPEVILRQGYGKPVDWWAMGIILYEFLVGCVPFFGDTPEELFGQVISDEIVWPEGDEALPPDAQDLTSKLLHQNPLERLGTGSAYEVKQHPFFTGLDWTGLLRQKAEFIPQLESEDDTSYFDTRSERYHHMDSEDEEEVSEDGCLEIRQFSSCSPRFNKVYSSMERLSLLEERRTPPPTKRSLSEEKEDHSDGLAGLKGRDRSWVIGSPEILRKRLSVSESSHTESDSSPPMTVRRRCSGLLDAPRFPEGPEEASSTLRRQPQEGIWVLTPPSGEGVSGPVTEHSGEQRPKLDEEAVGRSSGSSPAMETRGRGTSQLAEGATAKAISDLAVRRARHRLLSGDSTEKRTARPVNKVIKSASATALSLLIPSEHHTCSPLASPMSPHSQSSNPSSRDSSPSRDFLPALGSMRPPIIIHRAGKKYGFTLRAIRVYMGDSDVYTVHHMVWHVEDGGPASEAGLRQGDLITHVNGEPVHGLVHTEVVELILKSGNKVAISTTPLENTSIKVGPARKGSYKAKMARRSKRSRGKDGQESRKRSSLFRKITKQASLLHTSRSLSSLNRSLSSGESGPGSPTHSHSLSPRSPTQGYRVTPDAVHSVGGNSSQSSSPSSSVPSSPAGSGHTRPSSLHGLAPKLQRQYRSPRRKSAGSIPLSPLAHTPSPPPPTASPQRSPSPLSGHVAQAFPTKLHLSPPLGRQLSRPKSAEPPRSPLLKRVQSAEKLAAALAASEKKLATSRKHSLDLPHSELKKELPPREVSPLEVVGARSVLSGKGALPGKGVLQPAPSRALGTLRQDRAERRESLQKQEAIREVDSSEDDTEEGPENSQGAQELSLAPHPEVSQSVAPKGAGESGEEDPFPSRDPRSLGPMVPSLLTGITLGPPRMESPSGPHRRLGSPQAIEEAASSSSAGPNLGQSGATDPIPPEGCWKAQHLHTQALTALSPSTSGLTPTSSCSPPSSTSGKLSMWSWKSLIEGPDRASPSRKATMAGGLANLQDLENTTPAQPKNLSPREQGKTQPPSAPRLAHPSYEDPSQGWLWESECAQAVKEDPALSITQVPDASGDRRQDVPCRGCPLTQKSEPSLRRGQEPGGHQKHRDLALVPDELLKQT

[4] = target: Ephrin type-A receptor 2 (Homo sapiens, UniProt P29317); experiment: Inhibition of EphA2 ACT labeling site in human A-375 cells at 5 uM by KiNativ Profiling analysis relative to control; type: cell-based
[5] = test system: Tyrosine-protein kinase ABL1 (Homo sapiens), P00519 [E255K]; experiment: Inhibition of ABL1 E255K mutant (unknown origin) at 10 uM by Ambit Kinomescan binding assay relative to control
Tyrosine-protein kinase ABL1 (Homo sapiens), P00519 [E255K], sequence (P00519 whole entry E255K, the tested form may be a part): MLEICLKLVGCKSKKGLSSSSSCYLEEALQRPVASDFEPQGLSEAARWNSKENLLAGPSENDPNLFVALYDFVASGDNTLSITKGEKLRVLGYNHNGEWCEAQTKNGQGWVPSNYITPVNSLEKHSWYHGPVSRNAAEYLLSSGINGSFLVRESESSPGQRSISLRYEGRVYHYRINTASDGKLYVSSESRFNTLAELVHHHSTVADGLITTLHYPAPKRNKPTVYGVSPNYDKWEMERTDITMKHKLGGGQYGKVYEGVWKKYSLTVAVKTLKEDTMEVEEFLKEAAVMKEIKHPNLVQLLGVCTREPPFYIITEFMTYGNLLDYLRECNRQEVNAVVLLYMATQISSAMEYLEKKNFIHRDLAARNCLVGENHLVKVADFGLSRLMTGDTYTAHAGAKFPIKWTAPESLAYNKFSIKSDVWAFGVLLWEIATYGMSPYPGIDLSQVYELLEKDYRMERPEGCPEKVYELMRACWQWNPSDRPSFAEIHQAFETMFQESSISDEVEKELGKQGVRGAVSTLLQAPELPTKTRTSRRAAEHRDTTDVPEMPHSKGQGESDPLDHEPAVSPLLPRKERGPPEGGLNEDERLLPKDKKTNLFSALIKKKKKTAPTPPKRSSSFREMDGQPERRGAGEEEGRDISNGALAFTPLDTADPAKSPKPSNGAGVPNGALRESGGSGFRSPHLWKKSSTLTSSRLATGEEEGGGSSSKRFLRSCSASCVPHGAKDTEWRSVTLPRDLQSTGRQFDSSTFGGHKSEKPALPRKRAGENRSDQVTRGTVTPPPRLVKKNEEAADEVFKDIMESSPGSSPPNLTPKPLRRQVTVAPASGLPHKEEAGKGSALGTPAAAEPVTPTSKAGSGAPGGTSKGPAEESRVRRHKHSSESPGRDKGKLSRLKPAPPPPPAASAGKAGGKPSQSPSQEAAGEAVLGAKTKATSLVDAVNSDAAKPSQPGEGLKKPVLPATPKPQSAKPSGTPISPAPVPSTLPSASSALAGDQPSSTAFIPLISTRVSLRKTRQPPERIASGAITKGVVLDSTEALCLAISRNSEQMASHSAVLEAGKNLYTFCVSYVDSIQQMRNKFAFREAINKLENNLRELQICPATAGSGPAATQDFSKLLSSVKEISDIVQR

[6] = target: LIM domain kinase 1 (Homo sapiens) (UniProt P53667); experiment: Inhibition of LIMK1 (unknown origin) at 10 uM by Ambit Kinomescan binding assay
LIM domain kinase 1 (Homo sapiens), sequence (P53667 whole entry, looked up, the tested form may be a part): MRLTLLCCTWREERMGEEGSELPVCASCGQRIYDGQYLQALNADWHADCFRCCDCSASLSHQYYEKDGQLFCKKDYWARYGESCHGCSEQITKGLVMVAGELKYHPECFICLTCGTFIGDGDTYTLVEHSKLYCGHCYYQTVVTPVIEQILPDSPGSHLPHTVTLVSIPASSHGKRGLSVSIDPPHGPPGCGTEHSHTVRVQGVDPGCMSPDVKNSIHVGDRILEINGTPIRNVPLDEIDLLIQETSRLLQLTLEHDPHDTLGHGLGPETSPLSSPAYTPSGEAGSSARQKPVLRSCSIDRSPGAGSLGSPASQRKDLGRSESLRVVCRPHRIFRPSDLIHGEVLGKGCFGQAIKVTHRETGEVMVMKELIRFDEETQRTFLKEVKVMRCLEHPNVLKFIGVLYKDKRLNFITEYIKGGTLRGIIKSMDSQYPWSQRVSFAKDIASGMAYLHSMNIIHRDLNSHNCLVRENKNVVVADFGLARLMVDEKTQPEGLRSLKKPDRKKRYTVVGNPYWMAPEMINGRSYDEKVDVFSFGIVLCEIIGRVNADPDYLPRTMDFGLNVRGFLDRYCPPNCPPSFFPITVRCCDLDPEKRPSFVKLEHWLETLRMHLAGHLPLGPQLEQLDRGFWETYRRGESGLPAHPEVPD

[7] = target: Microtubule-associated serine/threonine-protein kinase 2 (Homo sapiens) (UniProt Q6P0Q8); experiment: Inhibition of MAST2 Lys2 labeling site in human A-375 cells at 0.5 uM by KiNativ Profiling analysis relative to control; type: cell-based
[8] = target: Mitogen-activated protein kinase kinase kinase kinase 4 (Homo sapiens, UniProt O95819); experiment: Inhibition of ZC1/HGK K1 labeling site harbouring TGQLAAIKVMDVTEDEEEEIKLEINMLKK in human Huh-7 cells at 10 uM by KiNativ Profiling analysis relative to control; type: cell-based
[9] = target: T2, Scaffold protein ILK (Homo sapiens) (UniProt Q13418); experiment: Inhibition of ILK K1 labeling site in human Huh-7 cells at 10 uM by KiNativ Profiling analysis relative to control; type: cell-based
T2 sequence (whole entry): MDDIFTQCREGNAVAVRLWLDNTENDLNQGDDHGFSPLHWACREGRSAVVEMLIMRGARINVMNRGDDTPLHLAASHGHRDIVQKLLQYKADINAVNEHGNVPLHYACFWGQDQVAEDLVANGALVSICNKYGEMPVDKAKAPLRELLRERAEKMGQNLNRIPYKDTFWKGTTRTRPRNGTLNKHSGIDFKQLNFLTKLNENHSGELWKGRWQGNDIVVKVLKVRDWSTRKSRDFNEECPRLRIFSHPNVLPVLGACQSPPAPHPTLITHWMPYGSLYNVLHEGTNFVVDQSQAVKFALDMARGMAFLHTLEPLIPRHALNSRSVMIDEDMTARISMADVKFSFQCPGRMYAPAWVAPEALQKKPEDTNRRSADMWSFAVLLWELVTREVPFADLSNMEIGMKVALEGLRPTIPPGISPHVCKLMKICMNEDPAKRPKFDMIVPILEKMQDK

[10] = target: Tyrosine-protein kinase Srms (Homo sapiens) (UniProt Q9H3Y6); experiment: Inhibition of SRMS (unknown origin) at 10 uM by Ambit Kinomescan binding assay relative to control; values are per cent of control
Tyrosine-protein kinase Srms (Homo sapiens), sequence (Q9H3Y6 whole entry): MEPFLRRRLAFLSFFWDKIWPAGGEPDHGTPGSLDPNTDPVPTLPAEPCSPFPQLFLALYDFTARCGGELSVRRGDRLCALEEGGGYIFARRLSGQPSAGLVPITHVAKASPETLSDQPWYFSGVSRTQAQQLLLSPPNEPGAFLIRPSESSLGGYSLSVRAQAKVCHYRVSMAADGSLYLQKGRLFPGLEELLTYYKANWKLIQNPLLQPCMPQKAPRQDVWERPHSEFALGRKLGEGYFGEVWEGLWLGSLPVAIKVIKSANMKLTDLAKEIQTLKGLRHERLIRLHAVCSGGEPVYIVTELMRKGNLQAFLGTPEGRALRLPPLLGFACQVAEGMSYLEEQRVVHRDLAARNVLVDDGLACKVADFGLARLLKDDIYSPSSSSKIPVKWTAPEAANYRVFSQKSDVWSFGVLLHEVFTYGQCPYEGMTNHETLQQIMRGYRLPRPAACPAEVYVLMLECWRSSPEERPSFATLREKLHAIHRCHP

[11] = target: Phosphatidylinositol 4-kinase beta (Homo sapiens) (UniProt Q9UBF8); experiment: Inhibition of PI4KB ATP labeling site harbouring VPHTQAVVLNSKDK in human Huh-7 cell lysate at 1 uM by KiNativ Profiling analysis relative to control; type: subcellular
Phosphatidylinositol 4-kinase beta (Homo sapiens), sequence (Q9UBF8 2-816 limits assumed): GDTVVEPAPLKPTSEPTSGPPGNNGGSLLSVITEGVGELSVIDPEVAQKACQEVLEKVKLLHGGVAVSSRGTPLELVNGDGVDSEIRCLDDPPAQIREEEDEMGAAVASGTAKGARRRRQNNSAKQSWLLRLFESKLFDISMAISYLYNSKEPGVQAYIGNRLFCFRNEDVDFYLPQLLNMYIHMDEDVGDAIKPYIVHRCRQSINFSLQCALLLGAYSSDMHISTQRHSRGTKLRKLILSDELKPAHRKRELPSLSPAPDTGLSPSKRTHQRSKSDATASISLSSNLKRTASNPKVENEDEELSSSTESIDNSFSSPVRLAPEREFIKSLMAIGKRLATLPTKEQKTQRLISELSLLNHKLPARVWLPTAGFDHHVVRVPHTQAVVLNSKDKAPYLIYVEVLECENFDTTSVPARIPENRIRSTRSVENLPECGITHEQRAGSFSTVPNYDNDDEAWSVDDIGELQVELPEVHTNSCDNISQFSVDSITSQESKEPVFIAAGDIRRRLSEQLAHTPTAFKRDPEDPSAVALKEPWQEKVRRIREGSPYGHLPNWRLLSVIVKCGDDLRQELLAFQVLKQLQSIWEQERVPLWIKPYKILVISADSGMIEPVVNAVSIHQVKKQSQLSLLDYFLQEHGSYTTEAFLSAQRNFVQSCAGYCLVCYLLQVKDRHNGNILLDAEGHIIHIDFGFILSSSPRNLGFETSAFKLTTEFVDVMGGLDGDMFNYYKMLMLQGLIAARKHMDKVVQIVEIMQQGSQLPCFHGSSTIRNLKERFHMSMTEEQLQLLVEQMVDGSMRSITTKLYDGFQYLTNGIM

[12] = target: T3, Mitogen-activated protein kinase 13 (Homo sapiens) (UniProt O15264); experiment: Inhibition of p38delta Lys2 labeling site in human Huh-7 cells at 1 uM by KiNativ Profiling analysis relative to control; type: cell-based
T3 sequence (whole entry): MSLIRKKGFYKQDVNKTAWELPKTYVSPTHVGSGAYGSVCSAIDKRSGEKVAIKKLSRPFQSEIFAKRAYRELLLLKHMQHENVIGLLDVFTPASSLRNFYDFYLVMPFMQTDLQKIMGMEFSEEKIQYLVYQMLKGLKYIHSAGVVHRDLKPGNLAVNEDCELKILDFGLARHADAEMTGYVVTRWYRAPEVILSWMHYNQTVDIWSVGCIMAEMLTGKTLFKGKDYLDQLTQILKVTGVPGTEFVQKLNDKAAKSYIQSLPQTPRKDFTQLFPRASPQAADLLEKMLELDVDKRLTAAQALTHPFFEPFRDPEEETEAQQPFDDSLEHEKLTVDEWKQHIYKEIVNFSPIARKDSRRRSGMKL

CCN1CCN(Cc2ccc(NC(=O)c3ccc(C)c(/C=C/c4cnc5[nH]ccc5c4OC)c3)cc2C(F)(F)F)CC1
inhibition [1]: 2.1%
inhibition [2]: 1.9%
inhibition [3]: -1.4%

CCN1CCN(Cc2ccc(NC(=O)c3ccc(C)c(Oc4ccnc5[nH]ccc45)c3)cc2C(F)(F)F)CC1
inhibition [4]: 57.7%
inhibition [5]: 1.2%
inhibition [6]: inactive
inhibition [7]: 16.1%
inhibition [8]: 75.4%
inhibition [9]: -5.7%
residual activity [10]: 4.6%

CNc1cc(Oc2cc(C(=O)Nc3cc(N4CCN(C)CC4)cc(C(F)(F)F)c3)ccc2C)ncn1
inhibition [11]: 1.9%
inhibition [12]: 13%
